Source: ChEMBL document CHEMBL5352385, “Marine natural products and their synthetic analogs as promising antibiofilm agents for antibiotics discovery and development” (Eur J Med Chem, 2022)
Where a SMILES comes first, the peptide text is derived from it. [ ]: non-standard residue; d: D form. The star is where a group is joined. ξ: configuration not given here. ξGly(tetradecyl) = CCCCCCCCCCCCCCC(N)C(=O)O; X2 = CCCCCCCCC(O)CC(=O)O*

How the values were obtained:
Staphylococcus aureus [1] = test: Antibiofilm activity against methicillin-resistant Staphylococcus aureus 33591 assessed as reduction in biofilm formation at 50 ug/ml measured after 24 hrs by crystal violet staining based analysis relative to control; assay type: functional; design: scale not given: the % may be the effect or the level left; details: dose 50 µg/ml
Pseudomonas aeruginosa [2] = test: Antibiofilm activity against Pseudomonas aeruginosa PA01 assessed as inhibition of biofilm formation at 800 ug/ml relative to control; assay type: functional; design: scale not given: the % may be the effect or the level left; details: dose 800 µg/ml
Staphylococcus aureus [3] = test: Antibiofilm activity against Staphylococcus aureus ATCC 6538 at 12.5 ug/ml relative to control; assay type: functional; details: dose 12.5 µg/ml
Streptococcus mutans = test: Antibiofilm activity against Streptococcus mutans at 5 ug/ml relative to control; assay type: functional; details: dose 5 µg/ml
Staphylococcus aureus [4] = test: Antibiofilm activity against Staphylococcus aureus ATCC 25923 at 8 to 16 ug/ml incubated for 24 hrs by crystal violet staining based analysis relative to control; assay type: functional; details: dose 8-16 µg/ml, at 8 to 16 µg/mL
Bacillus subtilis [5] = test: Antibiofilm activity against Bacillus subtilis ATCC 6633 at 8 to 16 ug/ml incubated for 24 hrs by crystal violet staining based analysis relative to control; assay type: functional; details: dose 8-16 µg/ml, at 8 to 16 µg/mL
Staphylococcus aureus [6] = test: Antibiofilm activity against Staphylococcus aureus B1 at 8 to 16 ug/ml incubated for 24 hrs by crystal violet staining based analysis relative to control; assay type: functional; details: dose 8-16 µg/ml, at 8 to 16 µg/mL
Enterococcus faecalis = test: Antibiofilm activity against Enterococcus faecalis W1 at 8 to 16 ug/ml incubated for 24 hrs by crystal violet staining based analysis relative to control; assay type: functional; details: dose 8-16 µg/ml, at 8 to 16 µg/mL
Staphylococcus aureus [7] = test: Antibiofilm activity against methicillin-sensitive Staphylococcus aureus ATCC 35556 incubated for 24 hrs; assay type: functional
Staphylococcus aureus [8] = test: Antibiofilm activity against methicillin-resistant Staphylococcus aureus ATCC 43866 incubated for 24 hrs; assay type: functional
[9] = tested on: Staphylococcus epidermidis; test: Antibiofilm activity against […] incubated for 24 hrs; assay type: functional
Bacillus pumilus = test: Antibiofilm activity against Bacillus pumilus TiO1 assessed as inhibition of biofilm formation at 12.5 ug/ml by microdilution plate method relative to control; assay type: functional; design: scale not given: the % may be the effect or the level left; details: dose 12.5 µg/ml
Pseudomonas aeruginosa [10] = test: Antibiofilm activity against Pseudomonas aeruginosa PA01 assessed as inhibition of biofilm formation at 25 ug/ml by microdilution plate method relative to control; assay type: functional; design: scale not given: the % may be the effect or the level left; details: dose 25 µg/ml
Candida albicans [11] = test: Antibiofilm activity against Candida albicans BH assessed as inhibition of biofilm formation at 25 ug/ml by microdilution plate method relative to control; assay type: functional; design: scale not given: the % may be the effect or the level left; details: dose 25 µg/ml
Pseudomonas aeruginosa [12] = test: Antibiofilm activity against Pseudomonas aeruginosa PA01 assessed as inhibition of biofilm formation at 100 ug/ml by microdilution plate method relative to control; assay type: functional; design: scale not given: the % may be the effect or the level left; details: dose 100 µg/ml
Acinetobacter baumannii [13] = test: Antibiofilm activity against Acinetobacter baumannii ATCC 19606 assessed as reduction in biofilm formation incubated for 24 hrs by crystal violet staining based analysis; assay type: functional
Acinetobacter baumannii [14] = test: Antibiofilm activity against Acinetobacter baumannii ATCC […] assessed as reduction in biofilm formation incubated for 24 hrs by crystal violet staining based analysis; assay type: functional
Vibrio anguillarum = test: Antibiofilm activity against Vibrio anguillarum at 300 ug/ml relative to control; assay type: functional; details: dose 300 µg/ml
Pseudomonas aeruginosa [15] = test: Antibiofilm activity against Pseudomonas aeruginosa at 300 ug/ml relative to control; assay type: functional; details: dose 300 µg/ml
Bacillus subtilis [16] = test: Antibiofilm activity against Bacillus subtilis at 300 ug/ml relative to control; assay type: functional; details: dose 300 µg/ml
Bacillus sp. = test: Antibiofilm activity against Bacillus sp. 176 at 300 ug/ml relative to control; assay type: functional; details: dose 300 µg/ml
Pseudomonas aeruginosa [17] = test: Antibiofilm activity against Pseudomonas aeruginosa assessed as inhibition of biofilm formation at 90 ug/ml incubated for 24 hrs by crystal violet staining based analysis relative to control; assay type: functional; design: scale not given: the % may be the effect or the level left; details: dose 90 µg/ml
Pseudomonas aeruginosa [18] = test: Antibiofilm activity against Pseudomonas aeruginosa FSPA02 at 75 ug/ml by crystal violet staining based confocal microscopy analysis relative to control; assay type: functional; details: dose 75 µg/ml
Candida albicans [19] = test: Antibiofilm activity against Candida albicans assessed as reduction in biofilm formation at >200 ug/ml measured after 48 hrs by crystal violet staining based analysis relative to control; assay type: functional; design: scale not given: the % may be the effect or the level left; details: dose > 200 µg/ml
Staphylococcus aureus [20] = test: Antibiofilm activity against Staphylococcus aureus by crystal violet staining based analysis; assay type: functional
Staphylococcus aureus [21] = test: Antibiofilm activity against Staphylococcus aureus incubated for 3 hrs by XTT method; assay type: functional
[22] = Inhibition of quorum-sensing system in Staphylococcus epidermidis assessed as inhibition of AI-2 at 60 ug/ml by bioluminescence assay relative to control; details: dose 60.0 µg/ml
Candida albicans [23] = test: Antibiofilm activity against Candida albicans assessed as reduction in biofilm formation at 100 ug/ml measured after 48 hrs by crystal violet staining based analysis relative to control; assay type: functional; design: scale not given: the % may be the effect or the level left; details: dose 100 µg/ml
Listeria monocytogenes = test: Antibiofilm activity against Listeria monocytogenes ATCC 19111 at 256 ug/ml relative to control; assay type: functional; details: dose 256 µg/ml
[24] = tested on: Staphylococcus epidermidis; test: Antibiofilm activity against Staphylococcus epidermidis RP62A at 256 ug/ml relative to control; assay type: functional; details: dose 256 µg/ml
Serratia marcescens = test: Antibiofilm activity against Serratia marcescens at 30 ug/ml relative to control; assay type: functional; details: dose 30 µg/ml

For `COc1cc(-c2ccccn2)nc(CO)c1SC`, the Activity (Staphylococcus aureus [1]) was >90%.
For `CC(=O)NCCc1ccc(O)cc1`, the Activity (Pseudomonas aeruginosa [2]) was 28%.
With `Cc1cc(O)c2c(c1)C(=O)c1cc(O)cc(O)c1C2=O` [EMODIN] the Activity (Staphylococcus aureus [3]) was >50% and the Activity (Streptococcus mutans) was 90%.
Work on `C=C1CC[C@H]2[C@@](C)(CC[C@H]3C(C)(C)[C@@H](OC(C)=O)CC[C@]23C)[C@@H]1Cc1c(O)cc(C)oc1=O` yielded an Activity (Staphylococcus aureus [4]) of 100%, an Activity (Bacillus subtilis [5]) of 100% and an Activity (Staphylococcus aureus [6]) of 100%. The Activity (Enterococcus faecalis) was 100%.
Molecule `Cn1c(-c2nnc(-c3ccc(Cl)cc3Cl)o2)cc(Br)c1Br` has an MBIC (Staphylococcus aureus [7]) of 0.39 µg/mL, an MBIC (Staphylococcus aureus [8]) of 0.78 µg/mL and an MBIC [9] of 3.125 µg/mL.
For `CCCCCCCCCCCCCCCC(=O)OC[C@H]1O[C@H](O)[C@H](O)[C@@H](O)[C@@H]1O`, the Activity (Bacillus pumilus) was >50%, the Activity (Pseudomonas aeruginosa [10]) was >50% and the Activity (Candida albicans [11]) was >50%. The Activity (Pseudomonas aeruginosa [12]) was >70%.
Molecule `COc1cc(-c2ccccn2)nc(/C=N/O)c1S(C)(=O)=O` has an MBIC (Acinetobacter baumannii [13]) of 8 µg/mL and an MBIC (Acinetobacter baumannii [14]) of 32 µg/mL.
With `CCCCCCCCCCCCCCC1NC(=O)C(C(C)CC)NC(=O)C(CC(C)C)NC(=O)C(CC(=O)OC)NC(=O)C(CC(C)C)NC(=O)C(CC(C)C)NC(=O)C(CC(C)C)NC(=O)C(CCC(=O)OC)NC1=O` (stereo unspecified) (cyclo([ξGly(tetradecyl)]E(OMe)LLLD(OMe)LI); configuration not given here) the Activity (Vibrio anguillarum) was >50%, the Activity (Pseudomonas aeruginosa [15]) was >50% and the Activity (Bacillus subtilis [16]) was >50%. The Activity (Bacillus sp.) was >50%.
In the case of `CC(C)CC(=O)NCCc1ccccc1`, the Activity (Pseudomonas aeruginosa [17]) is reported as >40%.
`CCCCCCCCC(O)CC(=O)OC(=O)C(Cc1ccccc1)NC(=O)C(CC(C)C)NC(=O)C(CC(C)C)NC(=O)C(NC(=O)C(CC(=O)O)NC(=O)C(CC(C)C)NC(=O)C(N)CC(C)C)C(C)C` (stereo unspecified) (H-LLDVLLF-X2; configuration not given here) showed an Activity (Pseudomonas aeruginosa [18]) of 90%.
For `C/C=C/CCCC(C)/C(O)=C1\C(=O)[C@H](C(C)O)N(C)C1=O` (stereo partly specified), the Activity (Candida albicans [19]) was 80%.
Work on `CCCCOC(=O)[C@]1(Cc2ccccc2)OC(=O)C(O)=C1c1ccccc1` yielded an MBIC (Staphylococcus aureus [20]) of 6.1 µg/mL and an MBIC (Staphylococcus aureus [21]) of 97.7 µg/mL.
For `CCCCCCCCCCCCCCC=O`, the inhibition [22] was > 50%.
With `C/C=C1\C(=O)/C(=C(/O)C(C)CCCCCC)C(=O)N1C` (stereo unspecified) [PENICILLENOL B2] the Activity (Candida albicans [23]) was 80%.
`CC(C)C[C@@H]1NC(=O)[C@@H]2CCCN2C1=O` gave an Activity (Listeria monocytogenes) of 86.9%, an Activity [24] of 82% and an Activity (Serratia marcescens) of 53.5%.
